Measurements taken from PubChem BioAssay AID1259411 (Chemical Carcinogenesis Research Information System (CCRIS), 2018).
Active and inactive are the calls of the source. No rule for the calls is given here.

System: rodent carcinogenicity bioassays, tumor incidence
Assay: CCRIS carcinogenicity studies
Method in brief: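 NCI-built, expert-reviewed records of carcinogenicity and related test outcomes (mutagenicity, tumor promotion/inhibition) compiled from published and report sources, historical span 1985-2011, not updated.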

Which results are given for `COP(=O)(OC)OC=C(Cl)Cl`?
carcinogen call (Species: MOUSE, Strain/Sex: B6C3F1/FEMALE, Route: GAVAGE, Dose: 0, 20, 40 MG/KG IN CORN OIL 5 D/WK FOR 103 WK (STUDY DURATION: 104 WK), Dose: 0, 20, 40 MG/KG IN CORN OIL 5 D/WK FOR 103 WK (STUDY DURATION: 104 WK), Tumor Site: Type of Lesion: FORESTOMACH: CARCINOMA, SQUAMOUS CELL PAPILLOMA): active; positive; carcinogen call (Species: MOUSE, Strain/Sex: B6C3F1/FEMALE, Route: GAVAGE, Dose: 0, 20, 40 MG/KG IN CORN OIL 5 D/WK FOR 103 WK (STUDY DURATION: 105 WK), Dose: 0, 20, 40 MG/KG IN CORN OIL 5 D/WK FOR 103 WK (STUDY DURATION: 105 WK), Tumor Site: Type of Lesion: FORESTOMACH: SQUAMOUS PAPILLOMA, SQUAMOUS CELL PAPILLOMA OR CARCINOMA): active; positive; carcinogen call (Species: MOUSE, Strain/Sex: B6C3F1/FEMALE, Route: ORAL, Dose: 0, 317, 635 PPM IN DIET, TWA, Dose: 0, 317, 635 PPM IN DIET, TWA): inactive; negative; carcinogen call (Species: MOUSE, Strain/Sex: B6C3F1/MALE, Route: GAVAGE, Dose: 0, 10, 20 MG/KG IN CORN OIL 5 D/WK FOR 103 WK (STUDY DURATION: 104 WK), Dose: 0, 10, 20 MG/KG IN CORN OIL 5 D/WK FOR 103 WK (STUDY DURATION: 104 WK), Tumor Site: Type of Lesion: FORESTOMACH: SQUAMOUS CELL PAPILLOMA): active; positive; carcinogen call (Species: MOUSE, Strain/Sex: B6C3F1/MALE, Route: GAVAGE, Dose: 0, 10, 20 MG/KG IN CORN OIL 5 D/WK FOR 103 WK (STUDY DURATION: 105 WK), Dose: 0, 10, 20 MG/KG IN CORN OIL 5 D/WK FOR 103 WK (STUDY DURATION: 105 WK), Tumor Site: Type of Lesion: FORESTOMACH: SQUAMOUS PAPILLOMA): active; positive; carcinogen call (Species: MOUSE, Strain/Sex: B6C3F1/MALE, Route: ORAL, Dose: 0, 317, 635 PPM IN DIET, TWA, Dose: 0, 317, 635 PPM IN DIET, TWA): inactive; negative; carcinogen call (Species: RAT, Strain/Sex: BDIX/BLN/FEMALE, Route: INTRAGASTRIC, Dose: 0, 0.1 MG IN 0.2 ML WATER 2/WK FOR 60 WK (STUDY DURATION: 111 WK)): inactive; negative; carcinogen call (Species: RAT, Strain/Sex: BDIX/BLN/FEMALE, Route: INTRAGASTRIC, Dose: 0, 0.1 MG IN 0.2 ML WATER 3/WK FOR 60 WK (STUDY DURATION: 111 WK)): inactive; negative; carcinogen call (Species: RAT, Strain/Sex: BDIX/BLN/MALE, Route: INTRAGASTRIC, Dose: 0, 0.1 MG IN 0.2 ML WATER 2/WK FOR 60 WK (STUDY DURATION: 111 WK)): inactive; negative; carcinogen call (Species: RAT, Strain/Sex: BDIX/BLN/MALE, Route: INTRAGASTRIC, Dose: 0, 0.1 MG IN 0.2 ML WATER 3/WK FOR 60 WK (STUDY DURATION: 111 WK)): inactive; negative; carcinogen call (Species: RAT, Strain/Sex: F344/FEMALE, Route: GAVAGE, Dose: 0, 4, 8 MG/KG IN CORN OIL 5 D/WK FOR 103 WK (STUDY DURATION: 104 WK), Dose: 0, 4, 8 MG/KG IN CORN OIL 5 D/WK FOR 103 WK (STUDY DURATION: 104 WK), Tumor Site: Type of Lesion: PANCREAS: ACINAR CELL ADENOMA, HEMATOPOIETIC SYSTEM: MONONUCLEAR CELL LEUKEMIA, MAMMARY GLAND: FIBROADENOMA, CARCINOMA, Tumor Site: Type of Lesion: PANCREAS: ACINAR CELL ADENOMA, HEMATOPOIETIC SYSTEM: MONONUCLEAR CELL LEUKEMIA, MAMMARY GLAND: FIBROADENOMA, CARCINOMA): active; positive; carcinogen call (Species: RAT, Strain/Sex: F344/FEMALE, Route: GAVAGE, Dose: 0, 4, 8 MG/KG IN CORN OIL 5 D/WK FOR 103 WK (STUDY DURATION: 105 WK), Dose: 0, 4, 8 MG/KG IN CORN OIL 5 D/WK FOR 103 WK (STUDY DURATION: 105 WK), Tumor Site: Type of Lesion: PANCREAS: ADENOMA, MAMMARY GLAND: FIBROADENOMA): equivocal; carcinogen call (Species: RAT, Strain/Sex: F344/MALE, Route: GAVAGE, Dose: 0, 4, 8 MG/KG IN CORN OIL 5 D/WK FOR 103 WK (STUDY DURATION: 104 WK), Dose: 0, 4, 8 MG/KG IN CORN OIL 5 D/WK FOR 103 WK (STUDY DURATION: 104 WK), Tumor Site: Type of Lesion: PANCREAS: ACINAR CELL ADENOMA, HEMATOPOIETIC SYSTEM: MONONUCLEAR CELL LEUKEMIA): active; positive; carcinogen call (Species: RAT, Strain/Sex: F344/MALE, Route: GAVAGE, Dose: 0, 4, 8 MG/KG IN CORN OIL 5 D/WK FOR 103 WK (STUDY DURATION: 105 WK), Dose: 0, 4, 8 MG/KG IN CORN OIL 5 D/WK FOR 103 WK (STUDY DURATION: 105 WK), Tumor Site: Type of Lesion: PANCREAS: ADENOMA, HEMATOPOIETIC SYSTEM: MONONUCLEAR CELL LEUKEMIA): active; positive; carcinogen call (Species: RAT, Strain/Sex: OSBORNE-MENDEL/FEMALE, Route: ORAL, Dose: 0, 318, 635 PPM IN DIET, TWA, Dose: 0, 318, 635 PPM IN DIET, TWA): inactive; negative; carcinogen call (Species: RAT, Strain/Sex: OSBORNE-MENDEL/MALE, Route: ORAL, Dose: 0, 150, 326 PPM IN DIET, TWA, Dose: 0, 150, 326 PPM IN DIET, TWA): inactive; negative

What does the source list for `C=C(C)[C@H]1CC=C(C)CC1`?
carcinogen call (Species: MOUSE, Strain/Sex: B6C3F1/FEMALE, Route: GAVAGE, Dose: 0, 500, 1000 MG/KG IN CORN OIL 5 D/WK FOR 103 WK (STUDY DURATION: 105 WK), Dose: 0, 500, 1000 MG/KG IN CORN OIL 5 D/WK FOR 103 WK (STUDY DURATION: 105 WK)): inactive; negative; carcinogen call (Species: MOUSE, Strain/Sex: B6C3F1/MALE, Route: GAVAGE, Dose: 0, 250, 500 MG/KG IN CORN OIL 5 D/WK FOR 103 WK (STUDY DURATION: 105 WK), Dose: 0, 250, 500 MG/KG IN CORN OIL 5 D/WK FOR 103 WK (STUDY DURATION: 105 WK)): inactive; negative; carcinogen call (Species: RAT, Strain/Sex: F344/FEMALE, Route: GAVAGE, Dose: 0, 300, 600 MG/KG IN CORN OIL 5 D/WK FOR 103 WK (STUDY DURATION: 106 WK), Dose: 0, 300, 600 MG/KG IN CORN OIL 5 D/WK FOR 103 WK (STUDY DURATION: 106 WK)): inactive; negative; carcinogen call (Species: RAT, Strain/Sex: F344/MALE, Route: GAVAGE, Dose: 0, 75, 150 MG/KG IN CORN OIL 5 D/WK FOR 103 WK (STUDY DURATION: 106 WK), Dose: 0, 75, 150 MG/KG IN CORN OIL 5 D/WK FOR 103 WK (STUDY DURATION: 106 WK), Tumor Site: Type of Lesion: KIDNEY: TUBULAR CELL ADENOMA, TUBULAR CELL ADENOMA OR ADENOCARCINOMA): active; positive

Which carcinogen call (Species: RAT, Route: ORAL, Tumor Site: Type of Lesion: LIVER) does the source give for `Cc1cc(C)c(N=Nc2c(O)c(S(=O)(=O)O)cc3cc(S(=O)(=O)O)ccc23)cc1C` here?
The carcinogen call was “active; positive”.

Which carcinogen call (Species: MOUSE, Strain/Sex: B6C3F1/FEMALE, Route: ORAL, Dose: 0, 3000, 6000 PPM IN DIET FOR 103 WK FOR 103 WK (STUDY DURATION: 105 WK), Dose: 0, 3000, 6000 PPM IN DIET FOR 103 WK FOR 103 WK (STUDY DURATION: 105 WK), Tumor Site: Type of Lesion: LIVER: HEPATOCELLULAR CARCINOMA, HEPATOCELLULAR ADENOMA OR CARCINOMA) does the source give for `CNc1ccc(N(CCO)CCO)cc1[N+](=O)[O-]` here?
The carcinogen call was “active; positive”.

What about the carcinogen call (Species: MOUSE, Strain/Sex: B6C3F1/MALE, Route: ORAL, Dose: 0, 1500, 3000 PPM IN DIET FOR 103 WK FOR 103 WK (STUDY DURATION: 105 WK), Dose: 0, 1500, 3000 PPM IN DIET FOR 103 WK FOR 103 WK (STUDY DURATION: 105 WK), Tumor Site: Type of Lesion: LIVER: HEPATOCELLULAR ADENOMA, HEPATOCELLULAR CARCINOMA, THYROID GLAND: FOLLICULAR CELL ADENOMA) of the same compound?
The carcinogen call was “active; positive”.

What about the carcinogen call (Species: RAT, Strain/Sex: F344/FEMALE, Route: ORAL, Dose: 0, 1500, 3000 PPM IN DIET FOR 103 WK FOR 103 WK (STUDY DURATION: 105 WK), Dose: 0, 1500, 3000 PPM IN DIET FOR 103 WK FOR 103 WK (STUDY DURATION: 105 WK), Tumor Site: Type of Lesion: LUNG: ALVEOLAR/BRONCHIOLAR ADENOMA OR CARCINOMA, UTERUS: ENDOMETRIAL STROMAL POLYP) of the same compound?
The carcinogen call was “active; positive”.

And the carcinogen call (Species: RAT, Strain/Sex: F344/MALE, Route: ORAL, Dose: 0, 1500, 3000 PPM IN DIET FOR 103 WK (STUDY DURATION: 105 WK), Dose: 0, 1500, 3000 PPM IN DIET FOR 103 WK (STUDY DURATION: 105 WK), Tumor Site: Type of Lesion: LIVER: HEPATOCELLULAR NEOPLASTIC NODULE OR CARCINOMA)?
Its carcinogen call is “equivocal”.
